# Data: patent US6514507B2, “Hydroxydecenoic acid compounds for promoting desquamation/epidermal renewal of the skin and/or combating skin aging” (Societe L'Oreal S.A., priority 1998, dated 2003)
# System: differentiated human keratinocytes
# Assay: in vitro screening of desquamating activity (release of corneocytes, cellular detachment index, flow cytometer)
# Format: cell-based
# Settings: for % of activity with respect to the control composed of an identical culture in the absence of compound (cellular detachment index): compounds at 5 × 10^−5 M, difference between T60 and T0 (60 minutes after addition), corneocytes counted by flow cytometer
# Experimental: This test of in vitro screening of an agent which is active with regard to desquamation was carried out on differentiated human keratinocytes. The principle of the test is based on the fact that desquamation induces the release of corneocytes. The desquamating power of the test product increases as the number of corneocytes released increases.
# The protocol of the test was as follows: starting with biopsies of human skin, the keratinocytes obtained by separation from the epidermis were dissociated by enzymatic action with trypsin and were cultured at a concentration of 2×10^5 cell/ml. The growth and differentiation of the keratinocytes was obtained by culturing for 10 to 20 days in a specific medium. The activity of the test product was then evaluated after removal of the culture medium. To do this, two samples were taken at T0 and T60, that namely, before the addition of the product and 60 minutes after this addition. The samples thus taken were analyzed with a flow cytometer in order to count the population of corneocytes. The flow cytometer made it possible to distinguish the populations of corneocytes and of keratinocytes by treatment with acridine orange, which is specific for cellular DNA.
# The cellular detachment index was determined by the difference between T60 and T0. The same measurement was carried out for a control not comprising test product, because the experiment inevitably produced the release of corneocytes, even in the absence of active principles.
# The test was carried out with 10-hydroxy-2-decenoic acid at a concentration of 5×10^−5M.
SMILES,"activity with regard to cellular detachment (5 × 10^−5 M, differentiated human keratinocytes)",% of activity with respect to the control composed of an identical culture in the absence of compound (cellular detachment index) [%]
O=C(O)C=CCCCCCCCO [10-Hydroxy-2-decenoic acid],high,110
"CCCCCCCC(=O)c1ccc(O)c(C(=O)O)c1 [Reference, 2-Hydroxy-5-octanoylbenzoic acid, reference compound]",,92
